Data as given in the Kinase Knowledgebase extract (Sharma et al. 2016).

Target: MAPK14 (human) (UniProt Q16539)
Assay: Inhibition of MAPK14 Kinase Activity

MAPK14 (human), sequence (Q16539 whole entry, looked up): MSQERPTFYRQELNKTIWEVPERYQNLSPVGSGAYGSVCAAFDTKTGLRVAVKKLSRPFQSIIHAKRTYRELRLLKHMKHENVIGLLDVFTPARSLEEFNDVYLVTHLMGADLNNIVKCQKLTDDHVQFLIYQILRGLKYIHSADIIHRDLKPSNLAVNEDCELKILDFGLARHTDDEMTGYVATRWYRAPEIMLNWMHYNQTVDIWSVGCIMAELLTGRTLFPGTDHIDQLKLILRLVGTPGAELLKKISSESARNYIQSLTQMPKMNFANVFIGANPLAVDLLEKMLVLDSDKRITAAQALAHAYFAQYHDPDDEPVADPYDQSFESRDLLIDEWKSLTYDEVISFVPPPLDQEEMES

IC50 [µM]	SMILES
< 1	O=C(N[C@H]1CCNC1)c1sc2c(ccc(=O)n2-c2ccccc2)c1Nc1ccc(F)cc1F
< 1	CN1CC[C@@H](NC(=O)c2sc3c(ccc(=O)n3-c3ccccc3)c2Nc2ccc(F)cc2F)C1
< 1	O=C(NC1CCNCC1)c1sc2c(ccc(=O)n2-c2ccccc2)c1Nc1ccc(F)cc1F
< 1	CN1CCC(NC(=O)c2sc3c(ccc(=O)n3-c3ccccc3)c2Nc2ccc(F)cc2F)CC1
< 1	O=C(NC1CCNC1)c1sc2c(ccc(=O)n2-c2ccccc2)c1Nc1ccc(F)cc1F (stereo unspecified)
< 1	Cc1cc(Nc2c(C(=O)NC3CNC3)sc3c2ccc(=O)n3-c2ccccc2)ccc1F
< 1	O=C(N[C@H]1CCC[C@@H]1O)c1sc2c(ccc(=O)n2-c2ccccc2)c1Nc1ccc(F)cc1F
< 1	CN1CC[C@H](NC(=O)c2sc3c(ccc(=O)n3-c3ccccc3)c2Nc2ccc(F)cc2F)C1
< 1	Cc1cc(Nc2c(C(=O)C3CCNCC3)sc3c2ccc(=O)n3-c2ccccc2)ccc1F
< 1	O=C(N[C@@H]1CCC[C@H]1O)c1sc2c(ccc(=O)n2-c2ccccc2)c1Nc1ccc(F)cc1F
< 1	O=C(N[C@@H]1CCC[C@@H]1O)c1sc2c(ccc(=O)n2-c2ccccc2)c1Nc1ccc(F)cc1F
< 1	Cc1cccc(Nc2c(C(=O)C3CCNCC3)sc3c2ccc(=O)n3-c2ccccc2)n1
< 1	O=C(c1sc2c(ccc(=O)n2-c2ccccc2)c1Nc1ccc(F)cc1F)C1CCNCC1
< 1	Cc1cc(Nc2c(C(=O)C3CCN(C)CC3)sc3c2ccc(=O)n3-c2ccccc2)ccc1F
< 1	O=C(c1sc2c(ccc(=O)n2-c2ccccc2)c1Nc1ccccc1)C1CCNCC1
< 1	O=C(N[C@@H]1CCNC1)c1sc2c(ccc(=O)n2-c2ccccc2)c1Nc1ccc(F)cc1F
